What was measured:
[1] = Metabolic stability in human liver microsomes assessed as half life at 1 uM in presence of NADPH-regenerating system by LC-MS/MS analysis; format: ADME, Microsome
[2] = molecular target: T1, Serine-protein kinase ATM (Homo sapiens, UniProt Q13315); assay: Inhibition of ATM (unknown origin) preincubated with compound for 30 mins followed by substrate addition and measured after 2 hrs by HTRF method
HCT-116 [3] = assay: Inhibition of colony formation in human HCT-116 cells preincubated for 1 hr followed by exposure to 2 Gy gamma irradiation and measured after 1 week by crystal violet staining based […] assay; format: functional, cell-based; conditions: HCT-116, light or radiation study
HCT-116 [4] = assay: Inhibition of colony formation in human HCT-116 cells at 0.01 uM preincubated for 1 hr followed by exposure to 2 Gy gamma irradiation and measured after 1 week by crystal violet staining based […] assay relative to control; format: functional; conditions: HCT-116, light or radiation study, time 169 hrs
[5] = Metabolic stability in human liver microsomes assessed as clearance at 1 uM in presence of NADPH-regenerating system by LC-MS/MS analysis; format: ADME, Microsome
[6] = molecular target: T1, Serine-protein kinase ATM; assay: Inhibition of ATM (unknown origin) assessed as remaining activity at 0.01 uM preincubated with compound for 30 mins followed by substrate addition and measured after 2 hrs by HTRF method relative to control; conditions: time 2.5 hrs
[7] = molecular target: T1, Serine-protein kinase ATM; assay: Inhibition of ATM (unknown origin) assessed as remaining activity at 1 uM preincubated with compound for 30 mins followed by substrate addition and measured after 2 hrs by HTRF method relative to control; conditions: time 2.5 hrs
[8] = molecular target: Serine/threonine-protein kinase ATR (Homo sapiens, UniProt Q13535); assay: Inhibition of ATR (unknown origin) assessed as remaining activity at 1 uM in presence of [gamma33P-ATP] by radiometric assay
HCT-116 [9] = assay: Antiproliferative activity against human HCT-116 cells assessed as cell survival at 1 uM incubated for 6 days by MTT assay relative to control; format: functional; conditions: HCT-116, 144 h, time 6 day, read-out: Survival

Serine/threonine-protein kinase ATR, sequence (Q13535 whole entry, looked up): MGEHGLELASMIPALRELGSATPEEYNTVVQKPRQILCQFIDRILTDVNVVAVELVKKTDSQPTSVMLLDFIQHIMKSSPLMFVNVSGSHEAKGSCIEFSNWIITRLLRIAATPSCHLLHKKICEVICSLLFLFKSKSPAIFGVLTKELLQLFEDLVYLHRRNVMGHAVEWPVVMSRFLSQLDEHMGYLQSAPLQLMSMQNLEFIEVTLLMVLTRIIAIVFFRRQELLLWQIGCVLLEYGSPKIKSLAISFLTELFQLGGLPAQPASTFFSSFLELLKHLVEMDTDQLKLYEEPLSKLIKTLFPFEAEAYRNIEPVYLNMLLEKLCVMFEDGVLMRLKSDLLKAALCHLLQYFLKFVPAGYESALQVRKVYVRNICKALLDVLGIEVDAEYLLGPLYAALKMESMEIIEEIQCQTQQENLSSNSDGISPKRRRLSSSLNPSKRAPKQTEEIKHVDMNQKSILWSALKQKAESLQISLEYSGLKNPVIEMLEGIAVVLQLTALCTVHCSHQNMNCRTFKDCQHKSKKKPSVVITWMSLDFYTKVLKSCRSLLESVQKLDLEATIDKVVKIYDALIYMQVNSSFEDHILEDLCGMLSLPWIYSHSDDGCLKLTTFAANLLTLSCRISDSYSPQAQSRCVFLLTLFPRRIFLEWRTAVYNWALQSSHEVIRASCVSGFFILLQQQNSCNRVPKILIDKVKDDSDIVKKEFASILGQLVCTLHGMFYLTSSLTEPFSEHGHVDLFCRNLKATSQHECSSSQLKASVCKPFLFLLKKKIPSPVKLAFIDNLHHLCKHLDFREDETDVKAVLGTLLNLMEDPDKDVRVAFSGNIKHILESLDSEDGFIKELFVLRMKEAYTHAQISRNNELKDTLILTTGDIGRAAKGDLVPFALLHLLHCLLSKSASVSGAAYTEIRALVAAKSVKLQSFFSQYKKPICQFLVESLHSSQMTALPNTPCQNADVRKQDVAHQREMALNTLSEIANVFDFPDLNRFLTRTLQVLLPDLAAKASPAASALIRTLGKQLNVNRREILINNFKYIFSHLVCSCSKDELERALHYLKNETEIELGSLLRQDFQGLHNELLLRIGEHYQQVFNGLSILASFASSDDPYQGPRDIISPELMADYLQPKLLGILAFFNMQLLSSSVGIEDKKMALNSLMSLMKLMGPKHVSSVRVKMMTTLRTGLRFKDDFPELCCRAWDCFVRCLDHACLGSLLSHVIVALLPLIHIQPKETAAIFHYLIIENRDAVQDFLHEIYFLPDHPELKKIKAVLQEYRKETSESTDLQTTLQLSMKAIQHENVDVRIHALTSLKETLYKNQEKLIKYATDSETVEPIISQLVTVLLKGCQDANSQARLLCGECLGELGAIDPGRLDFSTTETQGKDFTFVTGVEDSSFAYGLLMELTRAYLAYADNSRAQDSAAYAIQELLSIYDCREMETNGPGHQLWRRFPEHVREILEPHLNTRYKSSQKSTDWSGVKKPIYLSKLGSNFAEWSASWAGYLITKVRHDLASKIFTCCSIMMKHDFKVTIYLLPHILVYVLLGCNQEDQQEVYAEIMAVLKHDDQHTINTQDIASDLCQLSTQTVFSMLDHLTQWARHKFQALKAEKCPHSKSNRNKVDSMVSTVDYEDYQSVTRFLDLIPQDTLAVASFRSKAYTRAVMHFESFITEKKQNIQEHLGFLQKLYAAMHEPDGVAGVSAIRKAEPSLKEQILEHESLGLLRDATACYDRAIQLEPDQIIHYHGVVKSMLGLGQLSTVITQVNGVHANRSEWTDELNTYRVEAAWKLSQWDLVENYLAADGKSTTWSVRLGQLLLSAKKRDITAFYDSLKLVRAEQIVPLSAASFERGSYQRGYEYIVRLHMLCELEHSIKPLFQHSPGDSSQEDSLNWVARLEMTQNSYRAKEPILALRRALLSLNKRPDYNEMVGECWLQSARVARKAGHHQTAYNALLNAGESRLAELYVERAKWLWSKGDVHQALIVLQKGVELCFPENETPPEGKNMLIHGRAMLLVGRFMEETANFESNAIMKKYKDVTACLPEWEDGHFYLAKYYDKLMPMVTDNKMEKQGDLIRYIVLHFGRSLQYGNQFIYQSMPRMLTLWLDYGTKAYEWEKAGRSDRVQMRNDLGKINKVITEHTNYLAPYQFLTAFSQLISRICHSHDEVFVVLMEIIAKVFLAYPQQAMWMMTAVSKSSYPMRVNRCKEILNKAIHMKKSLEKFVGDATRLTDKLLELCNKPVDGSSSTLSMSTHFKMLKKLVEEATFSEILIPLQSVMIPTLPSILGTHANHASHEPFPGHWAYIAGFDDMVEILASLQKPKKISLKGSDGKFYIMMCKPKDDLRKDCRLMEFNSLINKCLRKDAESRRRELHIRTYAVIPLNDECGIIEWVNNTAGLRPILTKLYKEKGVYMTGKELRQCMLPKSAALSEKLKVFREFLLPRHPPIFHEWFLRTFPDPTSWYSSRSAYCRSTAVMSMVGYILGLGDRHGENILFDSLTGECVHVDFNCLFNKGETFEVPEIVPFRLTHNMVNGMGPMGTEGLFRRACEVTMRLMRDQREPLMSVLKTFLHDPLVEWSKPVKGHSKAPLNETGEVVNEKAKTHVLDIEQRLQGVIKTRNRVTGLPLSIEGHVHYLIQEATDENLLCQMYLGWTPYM

Structure (SMILES)	half-life at 1 µM [1] [min]	IC50 [2] [nM]	IC50 (HCT-116 [3]) [nM]	CLH [5] [mL/min/g]	Activity [6] [%]	Activity [7] [%]	Activity [8] [%]	inhibition at 0.01 µM (HCT-116 [4]) [%]	viability at 1 µM (HCT-116 [9]) [%]
CC(C)NC(=O)N(C)c1cnc2ccc(-c3ccc(OCCN4CCCC4)nc3)cc2n1	–	–	–	–	76	1	–	25	–
CC(C)NC(=O)N(C)c1cnc2ccc(-c3ccc(OCC4CCCN(C)C4)nc3)cc2n1 (stereo unspecified)	55	22	–	36	43	0	–	-8.09	–
CC(C)NC(=O)N(C)c1cnc2ccc(-c3ccc(OC4CCN(C)CC4)nc3)cc2n1	–	–	–	–	100	25	–	-7.74	–
CN(C)CCCOc1ccc(-c2ccc3ncc(NC(=O)NC4CCCC4)nc3c2)cn1	10	–	–	144	–	-5	98	–	–
CN(C)CCCOc1ccc(-c2ccc3ncc4c(c3c2)n(C2CCOCC2)c(=O)n4C)cn1	–	–	0.46	–	–	–	–	94.3	–
CC(C)NC(=O)N(C)c1cnc2ccc(-c3ccc(OCCCN4CCCC4)nc3F)cc2n1	204	4	26.5	6.8	–	–	–	43.4	–
Cc1cc(OCCCN2CCCCC2)ncc1-c1ccc2ncc(N(C)C(=O)NC(C)C)nc2c1	–	–	–	–	96	22	–	-19.8	–
C=CCNC(=O)N(C)c1cnc2ccc(-c3ccc(OCCCN(C)C)nc3)cc2n1	25	2	12.2	55	11	–	103	49.7	–
CC(C)NC(=O)N(C)c1cnc2ccc(-c3ccc(OCCCN4CCN(C)CC4)nc3)cc2n1	107	3	5.41	13	5	–	–	73.6	> 83
CC(C)NC(=O)N(C)c1cnc2ccc(-c3ccnc(OCCCN4CCCCC4)c3)cc2n1	–	–	–	–	97	10	–	32.2	–
CC(C)NC(=O)Nc1cnc2ccc(-c3ccc(OCCCN(C)C)nc3)cc2n1	15	–	–	94	–	-4	98	–	–
CC(C)NC(=O)N(C)c1cnc2ccc(-c3ccc(OCCCN4CCOCC4)nc3)cc2n1	61	3	7.13	24	4	–	–	64.1	> 83
CC(C)NC(=O)N(C)c1cnc2ccc(-c3ccc(OCC4CCN(C)C4)nc3)cc2n1 (stereo unspecified)	50	31	–	40	72	1	–	32.9	–
CCNC(=O)N(C)c1cnc2ccc(-c3ccc(OCCCN(C)C)nc3)cc2n1	11	6	–	127	33	–	104	57.8	–
CCCNC(=O)Nc1cnc2ccc(-c3ccc(OCCCN(C)C)nc3)cc2n1	12	–	–	120	–	-4	99	–	–
CC(C)NC(=O)N(C)c1cnc2ccc(-c3ccc(OC(C)CN(C)C)nc3)cc2n1 (stereo unspecified)	55	–	–	43	94	4	–	14.7	–
CC(C)NC(=O)N(C)c1cnc2ccc(-c3cnc(OCCCN4CCCCC4)cc3F)cc2n1	–	5	–	–	29	-3	–	27.4	–
CC(C)NC(=O)N(C)c1cnc2ccc(-c3ccc(OCCCN4CCCC4=O)nc3)cc2n1	90	–	–	19	106	71	–	33.7	–
CC(C)NC(=O)N(C)c1cnc2ccc(-c3ccc(OCCN4CCN(C)CC4)nc3)cc2n1	–	–	–	–	97	22	–	22.8	–
COCCCOc1ccc(-c2ccc3ncc(N(C)C(=O)NC(C)C)nc3c2)cn1	–	–	–	–	103	43	–	-24.2	–
CC(C)CCCOc1ccc(-c2ccc3ncc(N(C)C(=O)NC(C)C)nc3c2)cn1	–	–	–	–	–	33	–	–	–
CC1CCC(NC(=O)N(C)c2cnc3ccc(-c4ccc(OCCCN(C)C)nc4)cc3n2)CC1 (stereo unspecified)	19	2	–	93	8	–	94	76.2	–
CN(C)CCCOc1ccc(-c2ccc3ncc(N(C)C(=O)Nc4ccc(Cl)cc4)nc3c2)cn1	–	–	–	–	37	–	111	11.7	–
CC(C)NC(=O)N(C)c1cnc2ccc(-c3ccc(OCCC4CCCN4C)nc3)cc2n1 (stereo unspecified)	48	10	–	51	43	-3	–	36.5	–
CN(C)CCCOc1ccc(-c2ccc3ncc(N(C)C(=O)N[C@]45C[C@@H]6C[C@H](C[C@@H](C6)C4)C5)nc3c2)cn1	73	8	–	19	37	–	101	-3.67	–
CN(C)CCCOc1ccc(-c2ccc3ncc(NC(=O)NC(C)(C)C)nc3c2)cn1	8	–	–	185	–	-2	94	–	–

The next lines start with results.

half-life at 1 µM [1] [min]	IC50 [2] [nM]	IC50 (HCT-116 [3]) [nM]	CLH [5] [mL/min/g]	Activity [6] [%]	Activity [7] [%]	Activity [8] [%]	Structure (SMILES)	inhibition at 0.01 µM (HCT-116 [4]) [%]	viability at 1 µM (HCT-116 [9]) [%]
187	1	15.4	7.4	–	–	–	CC(C)NC(=O)N(C)c1cnc2ccc(-c3ccc(OCCCN4CCCCC4)nc3F)cc2n1	68.7	–
277	16	–	5.1	26	-4	–	CC(C)NC(=O)N(C)c1cnc2ccc(-c3ccc(OCCCN4CCCCC4)nc3C#N)cc2n1	14	–
46	30	–	37	73	-2	–	CC(C)NC(=O)N(C)c1cnc2ccc(-c3ccc(OCCN(C)C)nc3)cc2n1	-0.98	–
14	13	–	100	22	–	98	CN(C)CCCOc1ccc(-c2ccc3ncc(N(C)C(=O)NC(C)(C)C)nc3c2)cn1	44.7	–
35	26	–	60	66	-1	–	CC(C)NC(=O)N(C)c1cnc2ccc(-c3ccc(OCCCCN(C)C)nc3)cc2n1	20.2	–
38	–	–	47	86	4	–	CC(C)NC(=O)N(C)c1cnc2ccc(-c3ccc(OCCN4CCCCC4)nc3)cc2n1	24	–
–	–	–	–	39	–	109	CN(C)CCCOc1ccc(-c2ccc3ncc(N(C)C(=O)Nc4cccc(C(F)(F)F)c4)nc3c2)cn1	-11.9	–
16	3	–	84	12	–	102	CCCNC(=O)N(C)c1cnc2ccc(-c3ccc(OCCCN(C)C)nc3)cc2n1	77.4	–
–	–	–	–	90	10	–	CC(C)NC(=O)N(C)c1cnc2ccc(-c3cnc(OCCCN4CCCCC4)c(C(F)(F)F)c3)cc2n1	-13.6	–
462	9	21.9	3	16	-4	–	Cc1nc(OCCCN2CCCCC2)ccc1-c1ccc2ncc(N(C)C(=O)NC(C)C)nc2c1	48.2	–
–	–	–	–	108	54	–	CC(C)NC(=O)N(C)c1cnc2ccc(-c3ccc(OC4CCC(N(C)C)CC4)nc3)cc2n1 (stereo unspecified)	11.3	–
–	–	–	–	94	6	–	CC(C)NC(=O)N(C)c1cnc2ccc(-c3cnc(OCCCN4CCCCC4)c(F)c3)cc2n1	-3.96	–
–	–	–	–	107	29	–	Cc1cc(-c2ccc3ncc(N(C)C(=O)NC(C)C)nc3c2)cnc1OCCCN1CCCCC1	-28.4	–
9	–	–	151	–	-3	101	C=CCNC(=O)Nc1cnc2ccc(-c3ccc(OCCCN(C)C)nc3)cc2n1	–	–
51	3	–	45	22	–	120	COc1ccc(NC(=O)N(C)c2cnc3ccc(-c4ccc(OCCCN(C)C)nc4)cc3n2)cc1	-0.75	–
–	–	–	–	94	13	–	CC(C)NC(=O)N(C)c1cnc2ccc(-c3ccc(OCCN4CCOCC4)nc3)cc2n1	16.9	–

Reference: ChEMBL document CHEMBL5346961, “Discovery and Evaluation of 3-Quinoxalin Urea Derivatives as Potent, Selective, and Orally Available ATM Inhibitors Combined with Chemotherapy for the Treatment of Cancer via Goal-Oriented Molecule Generation and Virtual Screening” (J Med Chem, 2023)
